Data on nine compounds can be found in patent US6596759B2, “Medicament for treatment of irritable bowel syndrome” (Mitsubishi Chemical Corporation, priority 1997, dated 2003).

Each structure is given as a SMILES string. “Also recorded” adds a separate entry of the source. Marks after values point to notes of the source that are not given here.

In assay [1] the test system is defecation number induced by restraint stress in rats. Nature of the assay: Increase of defecation number induced by restraint stress (animal model of irritable bowel syndrome). The class given is in vivo. Particulars: rat; for Suppression of the increase of defecation number induced by the restraint (in words): over the doses of Table 3; for Effect on the defecation-suppressing action of the medicament of the present invention (combination of drugs): other drug given 1 hour, medicament 30 minutes before the restraint, FIG. 1; for Suppressive action on stress-induced defecation at a high dose (in words): high dose (amitriptyline 100 mg/kg, diazepam 30 mg/kg). The method, then: Increase of defecation number induced by restraint stress has widely been used as a pathological model of irritable bowel syndrome (Miyata et al., J. Pharmacol. Exp. Ther., 261, pp.297-303, 1992). Therefore, pathological model animals of irritable bowel syndrome were prepared according to the method of Williams et al. (Williams et al., Gastroenterology, 94, pp.611-621, 1988) and used for evaluation of the effectiveness of the medicament of the present invention. The medicament of the present invention was administered to the rats, and after 1 hour, their forelegs were fixed on their trunks with adhesive tapes under ether anesthesia (load of restraint stress). One hour after the restraint, defecation number was counted and the number was compared with that of the control group. In the experiments using a combination of drugs, the medicament of the present invention was administered to the animals 30 minutes before the restraint, and the other drug was administered 1 hour before the restraint.

The subject of assay [2] is defecation induced by forced swimming stress in rats. To be noted: rat; cited from earlier work.
For assay [3], the system named is patients with irritable bowel syndrome. To be noted: double-blind test; cited from earlier work.
The subject of assay [4] is animal model. To be noted: cited from earlier work.

Take `CCCN(CCC)C1CCc2cccc(O)c2C1` (stereo not shown) [8-OH-DPAT, 8-hydroxy-2-(di-n-propylamino)tetralin]: the “Suppression rate of defecation number (%)” value (“Suppression rate … (%)” below) is recorded as 25% in assay [1] (intraperitoneal, 0.03 mg/kg); 74* % in assay [1] (intraperitoneal, 0.1 mg/kg); 97* % in assay [1] (intraperitoneal, 0.3 mg/kg). The “Suppression of the increase of defecation number induced by the restraint (in words)” value (“Suppression of the increase … (in words)” below) in assay [1] is “the defecation due to the stress was suppressed”.
As for `CNCCC(Oc1ccc(C(F)(F)F)cc1)c1ccccc1` (stereo not shown) [Fluoxetin], the “Suppression rate … (%)” value in assay [1] (oral, 10 mg/kg) was found to be 24%; in assay [1] (oral, 30 mg/kg), 15%; in assay [1] (oral, 100 mg/kg) it was 26%.
Turning to `c1cnc(N2CCNCC2)nc1` [1-PP, 1-(2-pyrimidinyl)piperazine], in assay [1], the “Effect on the defecation-suppressing action of the medicament of the present invention (combination of drugs)” value is “inhibited; also recorded: antagonized”.
In the case of `O=C1CC2(CCCC2)CC(=O)N1CCCCN1CCN(c2ncccn2)CC1` [Buspirone, buspirone], the “Suppression rate … (%)” value is reported as 12% in assay [1] (oral, 10 mg/kg); 12% in assay [1] (oral, 30 mg/kg); 44% in assay [1] (oral, 100 mg/kg). The “Suppression of the increase … (in words)” value in assay [1] is given as “failed to exhibit significant efficacy”. Besides, the “Defecation suppressing activity, forced swimming stress” value in assay [2] was “exhibited significant defecation suppressing activity”.
`CN1C(=O)CN=C(c2ccccc2)c2cc(Cl)ccc21` [Diazepam, diazepam]: the “Suppression rate … (%)” value in assay [1] (oral, 3 mg/kg) was 26%; in assay [1] (oral, 10 mg/kg), 36%; in assay [1] (oral, 30 mg/kg), 77* %. Further, the “Suppressive action on stress-induced defecation at a high dose (in words)” value in assay [1] (oral) is listed as “exhibited significant suppressive actions”. Also, in assay [1] (oral), the “Efficacy on stress-induced defecation at a lower dose (in words)” value was “no efficacy”.
`O=C1[C@@H]2[C@H]3CC[C@H](C3)[C@@H]2C(=O)N1CCCCN1CCN(c2ncccn2)CC1` [Tandospirone, tandospirone]: the “Suppression rate … (%)” value is recorded as 8% in assay [1] (oral, 30 mg/kg); 4% in assay [1] (oral, 100 mg/kg); 44% in assay [1] (oral, 300 mg/kg). Moreover, the “Suppression of the increase … (in words)” value in assay [1] was “failed to exhibit significant efficacy”. Further, the “Therapeutic efficacy in irritable bowel syndrome compared with a placebo” value in assay [3] is “failed to give a significant difference”.
In the case of `c1ccc2c(c1)OC[C@H](CNCCCOc1ccc3c(c1)OCO3)O2` [Compound No. 1, 5-[3 [(2S)-(1,4-benzodioxan-2-ylmethyl)amino]propoxy]-1,3-benzo-dioxol], the “Suppression rate … (%)” value is recorded as 29% in assay [1] (oral, 0.3 mg/kg); 45* % in assay [1] (oral, 1 mg/kg); 81* % in assay [1] (oral, 3 mg/kg). For the same compound, in assay [1], the “Suppression of the increase … (in words)” value is listed as “dose-dependently suppressed”. Also, the Anxiolytic activity result in assay [4] is listed as “anxiolytic activity of the medicament of the present invention was observed”.
As to `CN(C)CCC=C1c2ccccc2CCc2ccccc21` [Amitriptyline, amitriptyline], the “Suppression rate … (%)” value in assay [1] (oral, 10 mg/kg) was 17%; in assay [1] (oral, 30 mg/kg), 6%; in assay [1] (oral, 100 mg/kg), 69* %. The “Suppressive action on stress-induced defecation at a high dose (in words)” value in assay [1] (oral) is listed as “exhibited significant suppressive actions”. The “Efficacy on stress-induced defecation at a lower dose (in words)” value in assay [1] (oral) is “no efficacy”.
On to `COc1ccccc1N1CCN(CC(C(=O)NC(C)(C)C)c2ccccc2)CC1` (stereo not shown) [WAY100135, N-tert-butyl-3-(4-(2-methoxyphenyl)piperazin-1-yl)-2-phenyl-propanamide], for which the “Effect on the defecation-suppressing action of the medicament of the present invention (combination of drugs)” value in assay [1] is reported as “inhibited”.
